Test results: patent publication US6326402A, “Methods for treating viral infections using a compound capable of inhibiting microtubules” (Octamer, Inc., priority 1998, dated 2001)
Entries after “also recorded” stand apart in the source; their conditions may differ. Read-outs that look alike come from different tables or passages of the source.

Tests used:
[1] = test system: Ras and apoptosis-regulating kinases (ASK1), JNK pathway, MEKK1/SEK1 and c-Jun/AP-1; details: cited from earlier work
tubulin [2] = details: cited from earlier work
[3] = compared with vincristine; cited from earlier work
[4] = test system: HIV-1 (strains HIV-, 89.6 and HIV-1 SF162); experiment: HIV replication in stimulated human lymphocytes (reverse transcriptase assay); assay type: cell-based, HIV-1 in human lymphocytes
Method: Inhibition of HIV replication in human white cells by DIME
Lymphocytes were obtained from the Sacramento Blood Bank. After stimulation of cells with phytohaemagglutinine for 3 days, cells were exposed to varying concentrations of DIME (see abscissa of FIG. 1) and incubated for 2 hours at 37° C., 5% CO2, followed by the addition of 3.2×10^5 TCID50 HIV-1 viruses (strains HIV-, 89.6 and HIV-1 SF162). Viral growth was allowed to proceed for 3 days.
(§1) Nocodazole is a well known antitubulin drug. It is highly toxic. Thus, we established a concentration that is relatively harmless to human white cells, i.e. between 0.1 and 1 μM. At […] , nocodazole depressed HIV production by 40% thereby simulating the action of DIME. However DIME is completely nontoxic up to about 320 μM.

[5] = Toxicity to human white cells; assay type: cell-based; details: white blood cells
Method: as §1

human white cells = details: cited from earlier work
HIV harboring cells = assay type: in vitro ADME, human
[6] = Toxicity, daily oral dosing of nude mice; assay type: in vivo; details: 1 g/kg daily, 12-15 days
Method: Ten nude mice were administered a daily oral dose of ^14 C-labeled DIME (Compound 1) (1.0 g/kg, 0.1 ml, in corn oil) for a period of 12-15 days.

[7] = Serum half-life and bioavailability of 14C-labeled DIME in mice; assay type: in vivo
Method: Mice were orally dosed with 126 mg/kg 14C-labeled DIME (Compound 1). After dosing, blood sampling times were 15 and 30 minutes and 1, 2, 4, 6, 8 and 24 hours. Aliquots (50 μL) of blood were assayed in a liquid scintillation counter and data expressed as microgram-equivalents per mL.
The blood level data were analyzed by the RSTRIP method (Micromath, Salt Lake City, Utah). Parallel groups of mice were dosed intravenously with 24.5 mg/kg 14C-labeled DIME and blood sampling times were 10, 20 and 30 minutes and 1, 2, 4, 6 and 8 hours.

[8] = test system: MDA-MB-231 (human mammary cancer) cells; experiment: MDA-MB-231 xenografts in nude mice, tumor volume; assay type: in vivo, human tumor xenograft in nude mice
Excerpt: The ability of human tumors to grow as xenografts in athymic mice (e.g., nude mice) provides a useful in vivo model for studying the biological response to therapies for human tumors. Since the first successful xenotransplantation of human tumors into athymic mice ([…] et al., 1969, Acta Pathol. Microbial. Scand. 77:758-760), many different human tumor cell lines (e.g., mammary, lung, genitourinary, gastrointestinal, head and neck, glioblastoma, bone and malignant melanomas) have been successfully transplanted and grown into nude mice. Human mammary tumor cell lines, including MCF-7, ZR75-1 and MDA-MB-23 1, have been established as subcutaneous grafts in nude mice (Warri et al., 1991, Intl. J. Cancer 49:616-23; Ozzello et al., 1980, Eur. J. Cancer 16:553-559; Osbourne et al., 1985, Cancer Res. 45:584-590; Siebert et al., 1983, Cancer Res. 43:2223-2239). […] Experimental Protocol MDA-MB-231 (human mammary cancer) cells were obtained from American Type Culture Collection (Rockville, Md.) and maintained in the recommended growth media. Twenty nude mice were each inoculated subcutaneously with MDA-MB-231 cells (10^6 cells/100 […]). To one group of ten mice, DIME was administered by gavage (250 mg/kg, 10 mL/kg in corn oil) once […] per day, 5 days per week, for a total of 32 days. The other (control) group of ten mice was given administered vehicle only according to the same dosing schedule. Tumors were measured twice weekly using a Vernier caliper, and the mean tumor volume was determined at each time point. Comparisons between groups were made using an unpaired, two-tailed t-test and the results were analyzed using analysis of variance.

viral replication = experiment: Anti-viral activity of DIME analogues and homologues (cellular assays and in vivo); assay type: cell-based
tubulin [9] = details: cited from earlier work; remark: listed apart in the source
[10] = test system: uptake of iodine into the thyroid; details: cited from earlier work
tadpole metamorphosis = details: as determined by tadpole metamorphosis; cited from earlier work
[11] = test system: non-malignant mouse pituitary adenoma; details: in vivo; cited from earlier work
apoptosis = details: disruption of microtubules; cited from earlier work
tumor cells = details: cited from earlier work
human cancer cells = details: relative to DIME; U.S. Ser. Nos. 08/655,267 and 08/833,272; cited from earlier work

CC(=O)O[C@H]1C(=O)[C@@]2(C)[C@H]([C@H](OC(=O)c3ccccc3)[C@]3(O)C[C@H](OC(=O)[C@H](O)[C@@H](NC(=O)c4ccccc4)c4ccccc4)C(C)=C1C3(C)C)[C@]1(OC(C)=O)CO[C@@H]1C[C@@H]2O [taxol]
activation of kinase pathways [1]: can activate both Ras and apoptosis-regulating kinases (ASK1), pathways

CC[C@]1(O)C[C@H]2CN(CCc3c([nH]c4ccccc34)[C@@](C(=O)OC)(c3cc4c(cc3OC)N(C=O)[C@H]3[C@@](O)(C(=O)OC)[C@H](OC(C)=O)[C@]5(CC)C=CCN6CC[C@]43[C@@H]65)C2)C1 [vincristine, reference compound]
KD vs tubulin relative to DIME (tubulin [2]; may be, relative to DIME): thousand-fold higher

CC[C@]1(O)C[C@@H]2CN(CCc3c([nH]c4ccccc34)[C@@](C(=O)OC)(c3cc4c(cc3OC)N(C)[C@H]3[C@@](O)(C(N)=O)[C@H](O)[C@]5(CC)C=CCN6CC[C@]43[C@@H]65)C2)C1 [vindesine, 4-desacetyl vinblastine C-3 carboxamide]
neurotoxicity in humans [3]: less neurotoxicity than does vincristine

COC(=O)Nc1nc2ccc(C(=O)c3cccs3)cc2[nH]1 [Nocodazole, reference compound]
inhibition at 0.1 µM ([4]; Human immunodeficiency virus 1, Lymphocyte, 72 h, read-out: depression of HIV production): 40%
MNTC [5]: 0.1 to 1 µM
toxicity (general statement) (human white cells): highly toxic

COC(=O)c1cc(I)c(Oc2ccc(OC)cc2)c(I)c1 [DIME, Methyl 3,5-diiodo-4-(4'-methoxyphenoxy)benzoate]
reverse transcriptase activity in cell supernatant as a function of DIME concentration (FIG. 1) ([4]; cpm, 2 h preincubation, viral growth 3 days): progressively diminishes as a function of DIME concentration; also recorded: decreases with increased "DIME" concentration
inhibition of HIV replication in human lymphocytes, concentration compared with microtubule disruption in tumor cells ([4]; human lymphocytes): at the same concentration as it disrupts microtubules in tumor cells
MNTC ([5]; up to about, read-out: concentration up to which completely nontoxic): ~320 µM
DIME uptake by HIV infected cells (HIV harboring cells): significant drug uptake
ill effects on daily oral dosing [6]: No ill effects
i.v. serum half-life (t1/2) ([7]; i.v., 24.5 mg/kg): about 4 hours
area under the blood concentration-time curve, intravenous ([7]; intravenous, 24.5 mg/kg, mice, 14C-labeled DIME): 156 µg·h/mL
half-life (t1/2) ([7]; mice, 14C-labeled DIME, 126 mg/kg oral, 24.5 mg/kg i.v.): 2 to 2.5 h
area under the blood concentration-time curve, oral ([7]; oral, 126 mg/kg, mice, 14C-labeled DIME): 665.28 µg·h/mL
half-life in serum ([7]; serum, route and species not stated): about 4 hours
MDA-MB-231 tumor volume Day 14 ± SEM ([8]; 250 mg/kg by gavage, 5 days per week, control 284.6 ± 42.0, p = 0.06): 172.0 ± 34.3
MDA-MB-231 tumor volume Day 21 ± SEM ([8]; 250 mg/kg by gavage, 5 days per week, control 622.2 ± 58.1, p = 0.02): 285.7 ± 62.4
MDA-MB-231 tumor volume Day 28 ± SEM ([8]; 250 mg/kg by gavage, 5 days per week, control 979.0 ± 154, p = 0.01): 430 ± 85.6
MDA-MB-231 tumor volume Day 32 ± SEM ([8]; 250 mg/kg by gavage, 5 days per week, control 1176.6 ± 222.4, p = 0.01): 543.8
% decrease of tumor volume, Day 14 ([8]; 250 mg/kg, vs vehicle control): 40%
% decrease of tumor volume, Day 21 ([8]; 250 mg/kg, vs vehicle control): 54%
% decrease of tumor volume, Day 28 ([8]; 250 mg/kg, vs vehicle control): 56%
% decrease of tumor volume, Day 32 ([8]; 250 mg/kg, vs vehicle control): 54%
reduction of malignant tumor growth ([8]; non-optimized treatment regimen): significant reduction of malignant tumor growth
anti-viral activity (viral replication): highly active
DIME uptake by normal or stimulated white cells (human lymphocytes): do not take up significant quantities
binding to microtubules (tubulin [2]; shown experimentally): binding to cellular microtubules
inhibition of tubulin polymerization (tubulin [9]): inhibition of tubulin polymerization
inhibition of uptake of iodine into the thyroid ([10]; rats, as compared to thyroxine): 15%
metabolic or cell differentiating activity (tadpole metamorphosis): no significant metabolic or cell differentiating activity
growth inhibition of non-malignant mouse pituitary tumor [11]: no inhibitory activity
induction of apoptosis (apoptosis): induces apoptosis
permeation into tumor cells in vivo (tumor cells): selective permeation into tumor cells in vivo

NC(Cc1cc(I)c(Oc2cc(I)c(O)c(I)c2)c(I)c1)C(=O)O (stereo not shown) [thyroxine, reference compound]
suppression of iodine uptake by the thyroid ([10]; rat, in vivo): suppresses uptake of iodine by the thyroid
metabolic or cell differentiating activity (tadpole metamorphosis): induces cell differentiation
growth inhibition of non-malignant mouse pituitary tumor [11]: depress growth

COC(=O)c1cc(I)c(Oc2ccc(OC)cc2Cl)c(I)c1 [Compound 14, Methyl 3,5-diiodo-4-(2'-chloro-4'methoxyphenoxy)benzoate]
maximal inhibitory action on the growth of human cancer cells as compared to DIME (human cancer cells): about 25%

CCOC(=O)c1cc(I)c(Oc2ccc(OC)cc2)c(I)c1 [Compound 5, Ethyl 3,5-diiodo-4-(4'-methoxyphenoxy)benzoate]
anti-viral activity (viral replication): inactive

CCCOc1ccc(Oc2c(I)cc(C(=O)OC)cc2I)cc1 [Compound 3, Methyl 3,5-diiodo-4-(4'-n-propoxyphenoxy)benzoate]
anti-viral activity (viral replication): inactive
